Legend:
[1] = test system: C9-24mer G + C (C9-24mer with C9-24mer-C) (DNA, other) GGGGCCGGGGCCGGGGCCGGGGCC/GGCCCCGGCCCCGGCCCCGGCCCC; assay: CD and native PAGE; details: K+ 5 mM; 30 mM Tris-HCl pH 7.4; co-annealed; PAGE with 8 µM Fangchinoline; parallel GQ induced
[2] = test system: FRET I + II (DNA, G4) GGGGCCGGGGCCGGGGCCGGGGCCAGAGGTAAAAGGATAATGGCCACGGTGCGGACGGC/GCCGTCCGCACCGTGGCCATTATCCTTTTACCTCT; assay: FRET (Cy3/Cy5) and CD; details: K+ 100 mM; 30 mM Tris-HCl pH 7.4; 2 µM DNA, 8-24 µM compound; FRET efficiency falls to 0.46
[3] = test system: C9-24mer (DNA, G4) GGGGCCGGGGCCGGGGCCGGGGCC; assay: CD titration at 265 nm, Hill fit; details: K+ 5 mM; 30 mM Tris-HCl pH 7.4; co-annealed; 2 µM DNA; per GQ unit; ligand induces parallel GQ; apparent
[4] = test system: C9-24mer (DNA, G4) GGGGCCGGGGCCGGGGCCGGGGCC; assay: CD melting; details: K+ 5 mM; 30 mM Tris-HCl pH 7.4; 2 µM DNA, 8 µM compound (4 equivalents)
[5] = test system: Dup I + II (DNA, duplex) GGGCATAGTGCGTGGCGTTTAGC/GCTAAACGCCACGCACTATGCCC; assay: CD and native PAGE; details: K+ 5 mM; 30 mM Tris-HCl pH 7.4; co-annealed; PAGE with 8 µM Fangchinoline, 2 µM each strand
[6] = test system: C9-48mer (DNA, G4) GGGGCCGGGGCCGGGGCCGGGGCCGGGGCCGGGGCCGGGGCCGGGGCC; assay: CD titration at 265 nm, Hill fit; details: K+ 5 mM; 30 mM Tris-HCl pH 7.4; co-annealed; 1 µM DNA; per GQ unit; ligand induces parallel GQ; apparent
[7] = test system: C9-RNA (RNA, G4) GGGGCCGGGGCCGGGGCCGGGGCC; assay: CD melting; details: K+ 5 mM; 30 mM Tris-HCl pH 7.4; 5 µM RNA, 2 equivalents (10 µM); Tm 76 to 93 °C
[8] = test system: C9-48mer (DNA, G4) GGGGCCGGGGCCGGGGCCGGGGCCGGGGCCGGGGCCGGGGCCGGGGCC; assay: CD melting at 265 nm; details: K+ 5 mM; 30 mM Tris-HCl pH 7.4; 1 µM DNA; Tm 90 °C at 1 equivalent, undetectable above 4 equivalents

## COc1ccc2cc1Oc1ccc(cc1)C[C@H]1c3cc(c(OC)cc3CCN1C)Oc1c(O)c(OC)cc3c1[C@H](C2)N(C)CC3
[1]
  binding: yes
[2]
  binding: yes
[3]
  Kb: (4.0 ± 0.3) × 10^5 M^-1
[4]
  ΔTm: 6 °C
[5]
  binding: no
[6]
  Kb: (6.6 ± 0.2) × 10^5 M^-1
[7]
  ΔTm: 17 °C
[8]
  binding: yes

— publication PMC10300829 (2023)
